Data: patent publication US6939858B2, “Malto-oligosaccharide derivatives and use thereof” (Kikkoman Corporation, priority 2000, dated 2005)

Key:
[1] = target: T1, HSA (α-amylase derived from human salivary gland) (Homo sapiens, UniProt P0DUB6); test: Inhibition of human α-amylase activity in vitro (blue starch, Neo·Amylase Test), HSA; assay type: biochemical; conditions: final concentration of inhibitor reducing 50% of the activity of the HSA solution; 37° C., 30 minutes
T1 construct: purchased International Reagents Corp., Japan Calibzyme·AMY
T1 sequence (P0DUB6 16-511): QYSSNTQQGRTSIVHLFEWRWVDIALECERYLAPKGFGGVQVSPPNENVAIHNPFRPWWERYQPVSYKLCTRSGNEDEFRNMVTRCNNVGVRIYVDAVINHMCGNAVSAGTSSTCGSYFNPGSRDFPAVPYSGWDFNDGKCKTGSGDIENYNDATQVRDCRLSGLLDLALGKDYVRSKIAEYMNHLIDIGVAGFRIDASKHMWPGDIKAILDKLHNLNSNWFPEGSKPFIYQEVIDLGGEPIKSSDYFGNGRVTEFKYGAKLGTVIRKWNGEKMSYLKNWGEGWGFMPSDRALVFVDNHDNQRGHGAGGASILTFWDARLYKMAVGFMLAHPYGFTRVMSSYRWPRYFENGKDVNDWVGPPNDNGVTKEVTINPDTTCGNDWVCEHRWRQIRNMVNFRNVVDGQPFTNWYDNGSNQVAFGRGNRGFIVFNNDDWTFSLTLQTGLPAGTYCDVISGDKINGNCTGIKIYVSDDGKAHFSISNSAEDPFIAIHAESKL
Experimental: (§1) Purified water was added to commercial HPA and HSA to dissolve them to a concentration of 350 IU/1 to prepare an α-amylase solution. “Calibzyme·AMY” (produced by International Reagents Corp., Japan) was used as this commercial human α-amylase. The α-amylase activity was determined with reference to the calibration curves of a commercial α-amylase determining reagent “Neo·Amylase Test, Daiichi” (produced by Daiichi Pure Chemicals Co., Ltd., Japan).
(§2) To 100 μl of the HPA or HSA solution were added 3.0 ml of purified water, 1.0 ml of inhibitor solution and one tablet of blue starch of “Neo·Amylase Test, Daiichi” (produced by Daiichi Pure Chemicals Co., Ltd., Japan). After stirring by a mixer for about 10 seconds, the mixture was warmed at 37° C. for 30 minutes and then further stirred by adding 1.0 ml of a 0.5 N sodium hydroxide solution to cease the reaction, after which the solution was centrifuged (1,500 G, 5 min.) and absorbance of the supernatant at 620 nm was measured. As a blank, purified water was used instead of the inhibitor solution.

[2] = target: T2, HPA (α-amylase derived from human pancreatic juice) (Homo sapiens, UniProt P04746); test: Inhibition of human α-amylase activity in vitro (blue starch, Neo·Amylase Test), HPA; assay type: biochemical; conditions: final concentration of inhibitor reducing 50% of the activity of the HPA solution; 37° C., 30 minutes
T2 construct: purchased International Reagents Corp., Japan Calibzyme·AMY
T2 sequence (P04746 16-511): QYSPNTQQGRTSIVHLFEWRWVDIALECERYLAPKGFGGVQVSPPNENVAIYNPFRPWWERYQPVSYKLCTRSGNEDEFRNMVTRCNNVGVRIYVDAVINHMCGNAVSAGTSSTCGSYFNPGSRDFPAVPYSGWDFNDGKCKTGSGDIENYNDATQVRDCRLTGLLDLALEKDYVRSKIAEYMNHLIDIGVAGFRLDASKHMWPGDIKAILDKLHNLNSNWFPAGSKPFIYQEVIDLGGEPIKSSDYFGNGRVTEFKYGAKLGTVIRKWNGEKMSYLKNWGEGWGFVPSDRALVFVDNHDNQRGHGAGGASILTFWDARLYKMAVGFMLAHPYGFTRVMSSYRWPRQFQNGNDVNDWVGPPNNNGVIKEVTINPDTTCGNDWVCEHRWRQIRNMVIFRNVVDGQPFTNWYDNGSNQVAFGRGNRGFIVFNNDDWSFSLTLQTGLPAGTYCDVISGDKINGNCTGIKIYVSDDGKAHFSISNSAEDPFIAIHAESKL
Experimental: as §1, §2

mice [Crj:CD-1 (ICR)] = test: Anti-diabetic activity: blood glucose level after oral corn starch loading in mice; assay type: in vivo; conditions: mice unfed 20 hours; oral DOGGDN 10 mg, 5 mg and 1 mg with 2,000 mg corn starch per kg; 0.5-4.0 hours; t-test; FIG. 1
Experimental: Commercially available healthy mice [Crj:CD-1 (ICR) available from Japan Charles River Co., Ltd.
Blood was collected from the orbital veniplex of each mouse just before administration and after the lapse of 0.5 hour, 1.0 hour, 1.5 hours, 2.0 hours, 3.0 hours and 4.0 hours after administration, and the concentration of glucose in the blood [blood glucose level (mg/dl)] was measured to examine the inhibitory effect against rise of blood glucose level after intake of corn starch, i.e. the anti-diabetic action. The inhibitory effect against rise of blood sugar level was judged by the t-test. The glucose concentration in the blood was determined using a blood glucose level analyzer “[sequence]” [mfd. by Bayer Sankyo Co., Ltd.].

Row | IC50 [1] [mM] | IC50 [2] [mM] | SMILES | rise of blood glucose level as compared with the control group (mice [Crj:CD-1 (ICR)])
1 | 0.26 | 0.26 | OCC1NCC(O)C(O)C1OC1OC(CO)C(OC2OC(CO)C(O)C(O)C2O)C(O)C1O (stereo not drawn) [GGDN, Maltosyl-deoxynojirimycin, reference compound] | 
2 | 0.03 |  | CC1OC(OC2C(CO)OC(OC3C(CO)NCC(O)C3O)C(O)C2O)C(O)C(O)C1O [DOGGDN, O-(6-deoxy)-α-D-glucopyranosyl-(1→4)-O-(α-D-glucopyranosyl)-(1→4)-deoxynojirimycin] | reduced significantly
3 | 0.03 | 0.05 | CC1OC(OC2C(CO)OC(OC3C(CO)NCC(O)C3O)C(O)C2O)C(O)C(O)C1OC1OC(CO)C(O)C(O)C1O [GDOGGDN, O-(α-D-glucopyranosyl)-(1→4)-O-(6-deoxy-α-D-glucopyranosyl)-(1→4)-O-(α-D-glucopyranosyl)-(1→4)-deoxynojirimycin] | 
